Experimental data as given in ChEMBL document CHEMBL1201862, “PubChem BioAssay data set” (2004).
Activity calls are given as the source filed them.

Key:
[1] = biological target: Neuropeptides B/W receptor type 1 (Homo sapiens, UniProt P48145); experiment: GPR7 antagonist potency, late-stage follow-up, cell-based, fluorescence, dose response, set 6 (AID 588583); type: functional
[2] = biological target: Melanin-concentrating hormone receptor 1 (Homo sapiens, UniProt Q99705); experiment: Late-stage fluorescence-based counterscreen for antagonists of the G-protein coupled receptor 7 (GPR7): cell-based dose response assay to identify antagonists of the melanin-concentrating hormone receptor 1 (MCHR1) Set 6.; type: functional
[3] = biological target: T1, High affinity choline transporter 1 (Homo sapiens, UniProt Q9GZV3); experiment: CHT inhibitors, dose response, cell-based, 5-point CRC, membrane potential dye (AID 504840); type: functional
T1 sequence (Q9GZV3 whole entry): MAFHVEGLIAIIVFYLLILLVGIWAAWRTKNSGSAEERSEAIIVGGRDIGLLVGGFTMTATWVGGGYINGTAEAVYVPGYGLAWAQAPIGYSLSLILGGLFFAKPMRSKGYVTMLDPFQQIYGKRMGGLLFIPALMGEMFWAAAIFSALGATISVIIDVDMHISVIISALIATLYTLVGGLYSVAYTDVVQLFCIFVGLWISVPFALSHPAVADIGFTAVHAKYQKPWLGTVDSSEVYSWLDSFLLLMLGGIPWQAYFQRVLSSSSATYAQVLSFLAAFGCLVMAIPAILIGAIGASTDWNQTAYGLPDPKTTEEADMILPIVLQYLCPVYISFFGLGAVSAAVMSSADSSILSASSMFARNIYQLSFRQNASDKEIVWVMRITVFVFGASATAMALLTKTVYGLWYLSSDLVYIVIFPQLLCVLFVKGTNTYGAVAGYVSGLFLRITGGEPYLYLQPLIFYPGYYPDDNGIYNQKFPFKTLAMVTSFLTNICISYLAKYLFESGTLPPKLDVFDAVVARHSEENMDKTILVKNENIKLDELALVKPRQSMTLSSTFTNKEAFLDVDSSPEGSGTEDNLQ

[4] = biological target: G-protein coupled receptor 35 (Homo sapiens, UniProt Q9HC97); experiment: GPR35 antagonists blocking zaprinast-driven arrestin recruitment, primary screen, imaging, U2OS, beta-arrestin-GFP, zaprinast agonist (AID 2058); type: functional;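 note: antagonist potency meaning inhibition of agonist-induced arrestin redistribution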
[5] = HepG2 cell cytotoxicity, dose response, cytotoxicity control for Shn3 inhibitor project, CellTiter-Glo, cherry-picked (AID 624134); type: functional, cell-based
[6] = inhibitors of intracellular T. cruzi replication, confirmation, NIH3T3 host cells, beta-gal luminescence (AID 2044); type: functional, cell-based;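 note: intracellular parasites grown in NIH/3T3 mouse fibroblasts as host cells; luminescent beta-galactosidase reporter signal from transgenic T. cruzi replicating inside host cells; inhibitors lower the luminescence signal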
BJ [7] = experiment: cells; type: functional, cell-based; conditions: Homo sapiens
[8] = biological target: Sphingosine 1-phosphate receptor 4 (Homo sapiens, UniProt O95977); experiment: Fluorescence dose response cell-based high throughput screening assay for antagonists of the Sphingosine 1-Phosphate Receptor 4 (S1P4). [Related pubchem assays: 1524 (Confirmation in triplicates.), 1510 (Primary screen.)]; type: functional
BJ [9] = experiment: cytotoxicity toward BJ-TERT-LT-ST fibroblasts, dose response, cell-based, RAS-independent, luminescence (AID 1935); type: functional; conditions: Homo sapiens;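 note: BJ fibroblasts immortalized with TERT plus LT and ST oncogenes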
[10] = control 3'UTR Renilla luciferase suppression, dose response, counter-screen for Shn3 inhibitor project, cell-based, Clone20-Shn3RL, cherry-picked (AID 624133); type: functional
[11] = biological target: Sphingosine 1-phosphate receptor 1 (Homo sapiens, UniProt P21453); type: functional;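 note: Tango beta-arrestin reporter U2OS cells stimulated with S1P near its EC80; inhibitor potency meaning antagonism of receptor activation by the natural agonist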
[12] = biological target: T1, High affinity choline transporter 1; experiment: CHT inhibitors, dose response, cell-based, 10-point CRC, membrane potential dye (AID 588401); type: functional;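 note: membrane potential dye fluorescence of choline-evoked depolarization via CHT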
[13] = biological target: G-protein coupled receptor 55 (Homo sapiens, UniProt Q9Y2T6); experiment: GPR55 agonists via beta-arrestin recruitment, primary screen, imaging, U2OS cells, beta-arrestin-GFP redistribution (AID 1961); type: functional
[14] = Shn3 3'UTR reporter inhibitors, dose response, cell-based, Clone20 osteoblasts, firefly luciferase, cherry-picked (AID 624132); type: functional;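 note: firefly luciferase luminescence from reporter carrying the Shn3 3'UTR in osteoblasts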
A-375 = experiment: A375 melanoma cell viability reduction, dose response, counter-screen for MITF modulator project, cherry-pick samples, set 2 (AID 540335); type: functional, cell-based; conditions: Homo sapiens
INS1 = experiment: beta cell apoptosis inhibitors, cytokine rescue, dose response, luminescence, retest (AID 449756); type: functional, cell-based; conditions: Rattus norvegicus;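 note: cell death triggered by IL-1 beta plus TNF-alpha plus IFN-gamma mixture; protective hits raise ATP signal compared with cytokine alone wells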
[15] = cytotoxicity toward NIH3T3 fibroblasts, dose response, counter-screen, cell-based, ATP luminescence, mouse fibroblasts (AID 2010); type: functional;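 note: cells exposed to compound for about 90 hours before reading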
[16] = cytotoxicity toward DRD oncogenic fibroblasts, dose response, cell-based, non-viral oncogenic, luminescence (AID 1934); type: functional; conditions: Homo sapiens
[17] = biological target: T2, Microphthalmia-associated transcription factor (Homo sapiens, UniProt O75030); experiment: TRPM1 promoter luciferase signal decrease, dose response, MITF inhibitor project, cell-based, SK-MEL-5, cherry-picked, set 3 (AID 493073); type: functional
T2 sequence (O75030 whole entry): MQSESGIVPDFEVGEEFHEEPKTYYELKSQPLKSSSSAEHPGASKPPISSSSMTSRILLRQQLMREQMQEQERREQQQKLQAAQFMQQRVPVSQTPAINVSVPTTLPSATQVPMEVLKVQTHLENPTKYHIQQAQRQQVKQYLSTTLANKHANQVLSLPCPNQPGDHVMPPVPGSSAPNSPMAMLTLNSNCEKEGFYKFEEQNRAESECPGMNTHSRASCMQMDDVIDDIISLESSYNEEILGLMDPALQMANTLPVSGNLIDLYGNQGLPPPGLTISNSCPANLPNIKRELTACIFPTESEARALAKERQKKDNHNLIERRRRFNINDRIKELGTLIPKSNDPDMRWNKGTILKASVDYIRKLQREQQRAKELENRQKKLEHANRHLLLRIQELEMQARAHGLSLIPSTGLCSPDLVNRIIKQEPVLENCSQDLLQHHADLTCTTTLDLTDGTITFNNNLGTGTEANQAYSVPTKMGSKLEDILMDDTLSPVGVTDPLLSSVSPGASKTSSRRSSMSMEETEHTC

[18] = Luminescence Cell-Based Dose Response HTS to Identify Inhibitors of 5'UTR Stem-Loop Driven Prion Protein mRNA Translation in H4 Neuroglioblastoma Cells. [Related pubchem assays: 1827 (Project Summary), 1813 (Primary HTS)]; type: functional
BJ [19] = experiment: cytotoxicity toward BJ-TERT fibroblasts, dose response, cell-based, RAS-independent, luminescence (AID 1933); type: functional; conditions: Homo sapiens
[20] = inhibitors of SNCA 5'UTR-driven reporter translation, confirmation, H4 neuroglioma cells, luminescence (AID 1988); type: functional, cell-based
[21] = inhibitors of firefly luciferase expression or activity, dose response, H4 neuroglioma cells, luminescence (AID 1990); type: functional, cell-based

G-protein coupled receptor 35, sequence (Q9HC97 whole entry): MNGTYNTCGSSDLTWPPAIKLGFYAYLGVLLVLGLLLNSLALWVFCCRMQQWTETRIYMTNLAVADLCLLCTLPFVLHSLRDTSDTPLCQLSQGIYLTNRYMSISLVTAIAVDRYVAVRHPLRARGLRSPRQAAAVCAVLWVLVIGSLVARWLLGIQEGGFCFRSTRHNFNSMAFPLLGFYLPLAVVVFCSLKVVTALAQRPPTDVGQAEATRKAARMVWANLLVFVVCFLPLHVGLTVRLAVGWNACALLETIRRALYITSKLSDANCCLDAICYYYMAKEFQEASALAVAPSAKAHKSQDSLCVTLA
Sphingosine 1-phosphate receptor 4, sequence (O95977 whole entry): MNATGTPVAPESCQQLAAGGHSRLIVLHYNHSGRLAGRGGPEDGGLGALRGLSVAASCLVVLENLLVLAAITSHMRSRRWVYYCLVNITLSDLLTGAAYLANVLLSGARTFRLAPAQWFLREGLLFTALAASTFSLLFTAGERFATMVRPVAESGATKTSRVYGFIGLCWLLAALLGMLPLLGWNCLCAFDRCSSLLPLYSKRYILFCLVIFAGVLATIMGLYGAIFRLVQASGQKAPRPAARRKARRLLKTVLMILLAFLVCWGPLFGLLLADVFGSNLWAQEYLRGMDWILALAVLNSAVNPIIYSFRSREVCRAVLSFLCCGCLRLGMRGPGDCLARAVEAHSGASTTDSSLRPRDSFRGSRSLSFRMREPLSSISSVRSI
G-protein coupled receptor 55, sequence (Q9Y2T6 whole entry): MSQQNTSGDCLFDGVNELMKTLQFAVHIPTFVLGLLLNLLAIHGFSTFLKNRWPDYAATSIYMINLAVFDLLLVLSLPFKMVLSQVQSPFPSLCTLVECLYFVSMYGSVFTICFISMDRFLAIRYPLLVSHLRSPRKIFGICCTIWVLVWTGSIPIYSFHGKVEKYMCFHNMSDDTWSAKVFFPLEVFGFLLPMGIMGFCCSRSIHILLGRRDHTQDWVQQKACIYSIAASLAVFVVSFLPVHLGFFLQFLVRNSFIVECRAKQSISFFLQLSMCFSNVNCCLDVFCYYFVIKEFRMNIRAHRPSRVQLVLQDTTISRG
Sphingosine 1-phosphate receptor 1, sequence (P21453 whole entry): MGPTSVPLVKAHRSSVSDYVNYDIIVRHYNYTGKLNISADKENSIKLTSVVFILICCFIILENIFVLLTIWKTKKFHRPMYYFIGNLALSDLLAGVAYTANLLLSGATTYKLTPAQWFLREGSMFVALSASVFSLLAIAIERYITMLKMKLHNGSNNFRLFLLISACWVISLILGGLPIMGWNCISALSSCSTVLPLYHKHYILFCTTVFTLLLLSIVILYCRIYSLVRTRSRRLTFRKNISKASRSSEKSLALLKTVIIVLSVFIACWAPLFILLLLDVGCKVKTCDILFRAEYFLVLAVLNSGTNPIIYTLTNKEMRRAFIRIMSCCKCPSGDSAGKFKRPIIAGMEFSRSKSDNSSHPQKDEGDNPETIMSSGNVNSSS
Melanin-concentrating hormone receptor 1, sequence (Q99705 whole entry): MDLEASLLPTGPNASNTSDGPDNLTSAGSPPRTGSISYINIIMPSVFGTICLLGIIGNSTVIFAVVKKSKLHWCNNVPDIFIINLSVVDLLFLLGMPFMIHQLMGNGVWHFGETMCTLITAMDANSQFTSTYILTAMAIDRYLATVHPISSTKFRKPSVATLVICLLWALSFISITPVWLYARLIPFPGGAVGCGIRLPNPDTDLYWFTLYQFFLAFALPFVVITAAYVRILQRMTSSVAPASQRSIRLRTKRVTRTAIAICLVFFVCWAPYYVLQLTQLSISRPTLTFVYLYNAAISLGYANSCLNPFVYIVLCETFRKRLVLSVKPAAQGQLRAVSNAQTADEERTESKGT
Neuropeptides B/W receptor type 1, sequence (P48145 whole entry): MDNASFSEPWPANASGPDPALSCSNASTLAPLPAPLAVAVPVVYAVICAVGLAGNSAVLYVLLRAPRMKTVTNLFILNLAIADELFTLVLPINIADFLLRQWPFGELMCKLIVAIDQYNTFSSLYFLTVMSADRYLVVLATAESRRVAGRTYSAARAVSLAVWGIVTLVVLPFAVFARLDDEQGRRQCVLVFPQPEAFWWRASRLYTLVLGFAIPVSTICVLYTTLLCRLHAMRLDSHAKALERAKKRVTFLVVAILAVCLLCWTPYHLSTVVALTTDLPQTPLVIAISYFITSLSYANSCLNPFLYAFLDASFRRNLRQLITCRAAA

Structure (SMILES): N#CC(Cc1ccccc1)c1c(Cl)cnn(Cc2cccc3ccccc23)c1=O (stereo not drawn)
- IC50 [1]: ~2.06 µM (active)
- IC50 [2]: ~2.06 µM (active)

Structure (SMILES): CC1=CC2/C=C(\C)CCC(O)C(O)/C=C/C(=O)C23C(=O)NC(CC(C)C)C3C1C (stereo not drawn)
- IC50 [3]: 4.38 µM (active)
- IC50 [4]: 3.06 µM (active)
- AC50 [5]: 8.15 µM (active)
- EC50 [6]: 4.09 µM (active)
- EC50 (BJ [7]): 6.51 µM (active)
- IC50 [8]: 0.648 µM (active)
- EC50 (BJ [9]): 4.8 µM (inconclusive)
- AC50 [10]: 6.91 µM (active)
- IC50 [11]: 17.6 µM (not active)
- IC50 [12]: 3.16 µM (active)
- EC50 [13]: > 32 µM (inactive)
- AC50 [14]: 5.29 µM (active)
- AC50 (A-375): 10.4 µM (active)
- AC50 (INS1): 6.6 µM (active)
- EC50 [15]: 4.73 µM (active)
- EC50 [16]: 4.94 µM (inconclusive)
- AC50 [17]: 6.58 µM (active)
- EC50 [18]: 8.86 µM (active)
- EC50 (BJ [19]): 4.94 µM (active)
- EC50 [20]: 9.67 µM (active)
- EC50 [21]: > 120 µM (not active)
